Holding throughout (assay): Biocide kill of planktonic cells and biofilm on vascular catheter (serum flow model)
Holding throughout (format): cell-based

The test system of one assay is Acinetobacter baumanii. The following applies: 5 to 60 minutes. The source says:
(§1) A system as shown in FIG. 6 was used in this study. Serum and a biocide were placed in sealed bottles as the first fluid source 505 and the second fluid source 509, respectively. The fluid sources were connected to a pump 515 by conventional IV tubing. A second pump 531 was used to deliver the fluid mixture to the vascular catheter 3 positioned in the sampling apparatus 1.
Initially, only the first fluid source, serum inoculated with Acinetobacter baumanii (10×10^9 CFU/ml), was used to contaminate the catheter with planktonic cells. The inoculated fluid continuously flowed through IV tubing directly through the catheter for […] to form a layer of planktonic cells on the catheter. […] The segments were transferred to test tubes containing one ml saline and the adherent cells were dislodged by sonication in an aquasonic device, vortexed for about one minute, and then counted on Tropic soya Agar. The number of viable cells were determined for each catheter and were compared to the number of viable cells in control samples (i.e., biocide-free serum) to calculate the biocide concentration required to kill 50% of the bacteria in the biofilm at the same time interval. […] In addition to plating cells on agar and counting the number of colonies, the amount of biofilm formed can be determined by a semiquantitive microtiter plate method. […]

For a further assay, the system named is Burkholderia cepacia. The following applies: 5 to 60 minutes; for biofilm kill (biocide concentration required to kill 50% of bacteria that grew in the biofilm): biofilm on vascular catheter, FIG. 11B; for planktonic cell kill (biocide concentration required to kill 100% of bacteria present as planktonic cells): planktonic cells on vascular catheter, FIG. 11A.
Text: as §1
(§2) Initially, only the first fluid source, serum inoculated with Acinetobacter baumanii (10×10^9 CFU/ml), was used to contaminate the catheter with planktonic cells. The inoculated fluid continuously flowed through IV tubing directly through the catheter for […] to form a layer of planktonic cells on the catheter. Fluid flow was then stopped and the tubing was then reconfigured as shown in FIG. 6 so that the second fluid source could be introduced. In these test runs, the first fluid source was inoculated with the same concentration of bacteria, and the second fluid source was a biocide (16-16,000 ppm) selected from hydrogen peroxide (H2O2), sodium hypochlorite (SHC), peracetic acid (PAA) and gluteraldehyde (GLT). The fluid mixture continuously flowed through the catheter for 5, 10, 15, 30, 45 or 60 minutes before fluid flow was discontinued to determine bacterial resistance of the planktonic cells on the catheter. In all, six runs were completed for each of four different biocides. After each run, the test catheter was then cut aseptically into 1 cm segments. The segments were transferred to test tubes containing one ml saline and the adherent cells were dislodged by sonication in an aquasonic device, vortexed for about one minute, and then counted on Tropic soya Agar. The number of viable cells were determined for each catheter and were compared to the number of viable cells in control samples (i.e., biocide-free serum) to calculate the biocide concentration required to kill 50% of the bacteria in the biofilm at the same time interval. Instead of saline, other appropriate buffer solutions can be used. In addition to plating cells on agar and counting the number of colonies, the amount of biofilm formed can be determined by a semiquantitive microtiter plate method. For example, adherent cells can be dislodged from test catheters as described above. The aliquots of solutions containing the cells from each catheter piece can then be added separately to wells of a 96-well tissue culture plate and incubated at 37° C. for 24 h. After several (e.g., three) washes with PBS, any remaining biofilm is stained with safranin O dye for 1 min and washed with PBS again. Optical density at 492 nm is determined with a 96-well plate spectrometer reader. For each time point, an aliquot without biocide is a positive control. Percent inhibition of biofilm accumulation can be determined from the formula (A492positive−A492biocide)/(A492positive−A492)×100%, Such plating methods are well known to one skilled in the art and could be modified as desired for analysis of the biofilm.
(§3) For determination of the bacterial resistance of the biofilm formed on the catheter, the method described above was repeated using the same conditions except that the inoculated fluid continuously flowed through the catheter for two hours before fluid flow was discontinued to form a biofilm on the catheter.
The experiment was repeated as described above, except that Burkholderia cepacia (1×10^9 CFU/ml) was used to inoculate the serum.

The next assay concerns Escherichia coli. The following applies: biofilm on vascular catheter, over all time periods (5 to 60 minutes), FIG. 12B.
The test system of assay [1] is methicillin resistant Staphylococcus aureus (MRSA). The following applies: biofilm on vascular catheter, 5 to 60 minutes, FIG. 14B.
In another assay the test system is Staphylococcus epidermis. The following applies: 5 to 60 minutes; for biofilm kill (biocide concentration required to kill 50% of bacteria that grew in the biofilm): biofilm on vascular catheter, FIG. 15B; for planktonic cell kill (biocide concentration required to kill 100% of bacteria present as planktonic cells): planktonic cells on vascular catheter, FIG. 15A.
Text: as §1, §2, §3
The experiment was repeated as described above, except that Staphylococcus epidermis (1×10^9 CFU/ml) was used to inoculate the serum.

For another assay, the system named is Pseudomonas aeruginosa. The following applies: 5 to 60 minutes; for biofilm kill (biocide concentration required to kill 50% of bacteria that grew in the biofilm): biofilm on vascular catheter, FIG. 16B; for planktonic cell kill (biocide concentration required to kill 100% of bacteria present as planktonic cells): planktonic cells on vascular catheter, FIG. 16A.
Text: as §1, §2, §3
The experiment was repeated as described above, except that Pseudomonas aeruginosa (1×10^9 CFU/ml) was used to inoculate the serum.

Assay [2] deals with Stenotrophomonas maltophilia. The following applies: 5 to 60 minutes; for biofilm kill (biocide concentration required to kill 50% of bacteria that grew in the biofilm): biofilm on vascular catheter, FIG. 17B; for planktonic cell kill (biocide concentration required to kill 100% of bacteria present as planktonic cells): planktonic cells on vascular catheter, FIG. 17A.
Text: as §1, §2, §3
The experiment was repeated as described above, except that Stenotrophomonas maltophilia (1×10^9 CFU/ml) was used to inoculate the serum.

A further assay concerns Enterococcus faecalis. The following applies: serum, 5 to 60 minutes.

Molecules are shown by their SMILES.

On to `O=CCCCC=O` [GLT, gluteraldehyde], for which the “planktonic cell kill (biocide concentration required to kill 100% of bacteria present as planktonic cells)” value in the assay on Acinetobacter baumanii (planktonic cells on vascular catheter, FIG. 10A) was “most effective”; in the assay on Burkholderia cepacia, “performed comparably and were more effective than hydrogen peroxide”; in the assay with Staphylococcus epidermis it was “performed similarly in planktonic cell kill and outperformed hydrogen peroxide”; in the assay with Pseudomonas aeruginosa, “performed comparably and were more effective than hydrogen peroxide and SHC”; in assay [2] it was “somewhat more effective in killing planktonic cells as compared to SHC or PAA and considerably more effective than hydrogen peroxide”. Also, the “biofilm kill (biocide concentration required to kill 50% of bacteria that grew in the biofilm)” value with Burkholderia cepacia was “nearly identical effect”; in the assay on Escherichia coli it was “least effective”; in assay [1], “PAA>GLT>hydrogen peroxide>SHC”; with Staphylococcus epidermis, “least effective”; in the assay on Pseudomonas aeruginosa, “PAA>SHC>GLT>hydrogen peroxide”; in assay [2], “nearly identical effect”.

Take `CC(=O)OO` [PAA, peracetic acid]: the “biofilm kill (biocide concentration required to kill 50% of bacteria that grew in the biofilm)” value in the assay on Acinetobacter baumanii (biofilm on vascular catheter, FIG. 10B) was “most effective”; in the assay with Burkholderia cepacia it was “most effective”; in the assay with Escherichia coli, “most effective”; in the assay with Enterococcus faecalis (biofilm on vascular catheter, FIG. 13B), “most effective”; in assay [1], “most effective”; in the assay with Staphylococcus epidermis, “most effective”. The “biofilm kill (biocide concentration required to kill 50% of bacteria that grew in the biofilm)” value (in the assay with Pseudomonas aeruginosa; in assay [2]) was “most effective” each time. In addition, the “planktonic cell kill (biocide concentration required to kill 100% of bacteria present as planktonic cells)” value in the assay on Burkholderia cepacia was “performed comparably and were more effective than hydrogen peroxide”; in the assay on Enterococcus faecalis (planktonic cells on vascular catheter, FIG. 13A) it was “most effective”; in the assay with Staphylococcus epidermis, “performed similarly in planktonic cell kill and outperformed hydrogen peroxide”; in the assay with Pseudomonas aeruginosa, “performed comparably and were more effective than hydrogen peroxide and SHC”; in assay [2] it was “GLT was somewhat more effective in killing planktonic cells as compared to SHC or PAA”.

The record behind these values is US20080076147A1, “BIOFILM SAMPLING DEVICE” (BOARD OF TRUSTEES OF SOUTHERN ILLINOIS UNIVERSITY, priority 2006, published 2008).
